A short description of data set [1]: Kinetic solubility test in PBS pH7.4. It counts as physicochemical. Particulars: for solubility at 2 h: aqueous buffer, kinetic from dmso stock, PBS pH 7.4, 25° C.
The next data set has as its target T1, PI3K gamma (Mus musculus, UniProt Q9JHG7).
T1 construct: endogenous in cells; host or cells: RAW264.7
The data set can be described thus: Raw264.7 cell assay: phosphorylation of AKT in C5a stimulated RAW264.7 cells (AlphaLISA). Type of data set: cell-based. As to conditions: pAKT, read-out: PI3K gamma Raw264.7 cell (nM) cellular activity (IC50). Put shortly: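 Passage-15 RAW264.7 cells were plated and rested 2 h at 37 °C, then given compound for 30 min at 37 °C before C5a stimulation. Lysates went to phospho-AKT AlphaLISA with a 2 h dark incubation at 25 °C. IC50 came from a four-parameter logistic fit of inhibition against log concentration.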
(In general: Alpha assays give light when donor and acceptor beads are brought close together.)

The target of another data set is T2, PI3K delta (Homo sapiens, UniProt O00329).
T2 construct: endogenous in cells; host or cells: Raji
T2 sequence (O00329 whole entry): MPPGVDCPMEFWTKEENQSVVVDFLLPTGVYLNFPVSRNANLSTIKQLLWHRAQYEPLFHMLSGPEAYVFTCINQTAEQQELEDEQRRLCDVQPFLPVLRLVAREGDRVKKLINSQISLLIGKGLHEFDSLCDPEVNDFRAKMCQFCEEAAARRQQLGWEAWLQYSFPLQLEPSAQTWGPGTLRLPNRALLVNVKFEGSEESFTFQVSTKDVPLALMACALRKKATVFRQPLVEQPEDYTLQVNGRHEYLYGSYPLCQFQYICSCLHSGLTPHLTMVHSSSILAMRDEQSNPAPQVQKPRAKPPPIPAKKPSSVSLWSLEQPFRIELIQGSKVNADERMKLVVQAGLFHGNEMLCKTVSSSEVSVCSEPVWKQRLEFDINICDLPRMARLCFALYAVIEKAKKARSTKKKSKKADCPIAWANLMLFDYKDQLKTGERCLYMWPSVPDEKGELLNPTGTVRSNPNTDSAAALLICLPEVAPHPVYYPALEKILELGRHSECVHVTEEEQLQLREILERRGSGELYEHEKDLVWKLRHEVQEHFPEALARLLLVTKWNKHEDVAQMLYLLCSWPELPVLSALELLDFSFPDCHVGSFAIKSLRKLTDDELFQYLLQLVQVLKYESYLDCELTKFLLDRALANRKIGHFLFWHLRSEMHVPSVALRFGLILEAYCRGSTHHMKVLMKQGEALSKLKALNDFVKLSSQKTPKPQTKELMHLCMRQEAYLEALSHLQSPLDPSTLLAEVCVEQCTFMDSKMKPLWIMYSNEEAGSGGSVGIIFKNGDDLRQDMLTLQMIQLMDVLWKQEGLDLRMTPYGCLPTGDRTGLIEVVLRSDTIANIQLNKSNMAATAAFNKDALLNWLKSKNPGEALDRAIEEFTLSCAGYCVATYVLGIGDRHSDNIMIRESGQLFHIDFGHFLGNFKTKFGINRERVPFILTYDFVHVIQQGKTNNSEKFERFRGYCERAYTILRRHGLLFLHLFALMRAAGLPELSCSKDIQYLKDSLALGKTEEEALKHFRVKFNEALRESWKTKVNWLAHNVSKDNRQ
T2 sequence (P27986 whole entry partner): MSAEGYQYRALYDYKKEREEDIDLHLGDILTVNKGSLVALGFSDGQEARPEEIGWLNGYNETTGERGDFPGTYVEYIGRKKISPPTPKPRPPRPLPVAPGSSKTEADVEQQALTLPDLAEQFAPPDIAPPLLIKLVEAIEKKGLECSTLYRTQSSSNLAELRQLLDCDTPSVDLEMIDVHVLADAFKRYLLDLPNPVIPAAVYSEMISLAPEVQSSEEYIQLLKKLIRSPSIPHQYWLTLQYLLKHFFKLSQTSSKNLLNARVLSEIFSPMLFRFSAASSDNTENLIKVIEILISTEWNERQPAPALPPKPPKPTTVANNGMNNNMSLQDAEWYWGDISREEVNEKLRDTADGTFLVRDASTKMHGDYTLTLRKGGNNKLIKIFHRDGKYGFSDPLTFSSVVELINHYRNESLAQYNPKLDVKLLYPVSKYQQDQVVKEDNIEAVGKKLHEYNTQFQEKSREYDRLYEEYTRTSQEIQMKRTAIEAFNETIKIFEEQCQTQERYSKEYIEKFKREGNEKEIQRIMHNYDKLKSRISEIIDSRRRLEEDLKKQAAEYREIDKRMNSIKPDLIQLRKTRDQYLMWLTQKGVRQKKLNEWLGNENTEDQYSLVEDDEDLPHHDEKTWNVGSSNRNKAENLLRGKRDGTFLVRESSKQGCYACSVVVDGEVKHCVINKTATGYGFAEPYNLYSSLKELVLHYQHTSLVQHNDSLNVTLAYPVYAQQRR
The data set can be described thus: Raji cell assay: phosphorylation of AKT in anti-IgM stimulated Raji cells (AlphaLISA). As to conditions: pAKT, read-out: PI3K delta Raji cell (nM) cellular activity (IC50). It counts as cell-based. The procedure: This study aims to determine the inhibitory effect of compounds on PI3K gamma and PI3K delta in corresponding cell based assays. PI3K gamma activity was reflected by phosphorylation of AKT in C5a stimulated RAW264.7 cells, and PI3K delta activity was reflected by phosphorylation of AKT in anti-IgM stimulated Raji cells. Phosphorylation of AKT in cells was determined using AlphaLISA technology from PerkinElmer.
Raji cell assay: Prepare Passage 11 Raji cell and add 6 μL of 60K cells per well in 384-well plate. Centrifuge at 500 RPM for 30 s and incubate for 2 hours at 37° C., 5% CO2. Add 30 nL compound by Echo and incubate for 30 min at 37° C. Add 2 μL of IgM (4×, 12 μg/mL) per well, centrifuge at 500 RPM for 30 s and incubate for 10 min at 37° C. Add 2 μL of 5× lysis buffer by Multidrop. Shake 10 min on a plate shaker. Add 5 μL acceptor mix provided in the kit. Centrifuge at 1000 RPM for 1 min. Add 5 μL donor mix provided in the kit. Centrifuge at 1000 RPM for 1 min. Then incubate for 2 hours at 25° C., keep the plate in dark. Read AlphaLISA signal on Envision.
Data analysis: Fit the cpd IC50 from non-linear regression equation. Y=Bottom+(Top−Bottom)/(1+10^((Log IC50−X)*Hill Slope)) X: Log of cpd concentration Y: Inhibition

A further data set can be described thus: Pharmacokinetics in dogs. It counts as in vivo. Particulars: IV bolus at 1 mg/kg and PO at 5 mg/kg; for bioavailability / clearance / half-life: male, dog, plasma; for bioavailability: beagle, oral, 5 mg/kg, read-out: F (%) oral bioavailability. As to the method:
Dosing solutions were prepared at 1 mg/mL in 5% DMSO/40% PEG400/55% water. A dosing solution was administered to male beagle dogs (Approximately 9-14 kg, 3 dogs each group) via intravenous (IV) bolus at 1 mg/kg and by oral gavage (PO) at 5 mg/kg. The dosing volume was 1 mL/kg for IV administration and 5 mL/kg for oral gavage. Blood samples (˜0.3 mL each time point) were collected into tubes containing potassium ethylenediaminetetraacetic acid (K2EDTA) as the anticoagulant at 0.033, 0.083, 0.25, 0.5, 1, 2, 4, 8 and 24 hours post dose for IV administration and 0.083, 0.25, 0.5, 1, 2, 4, 8 and 24 hours post dose for PO administration. The blood samples were then centrifuged for 5 minutes in a centrifuge refrigerated at 4° C. The resultant plasma samples were analyzed using LC/MS/MS to determine concentrations of a test compound. Non-compartmental model with WinNonlin (Phoenix™, version 6.1) software was used to calculate pharmacokinetic (PK) parameters.

The text below walks through data of patent US11542262B2, “Phosphatidylinositol 3-kinase inhibitors” (NANJING ZHENGXIANG PHARMACEUTICALS CO., LTD., priority 2019, dated 2023).

SMILES strings stand for the structures. Values after ≈ are worked out from the molar mass of the structure shown.

The term solubility denotes how much of the substance goes into solution per volume. In general, half-life refers to the time in which the quantity being followed falls by half. Low readings indicate fast loss, high ones slow loss.

T1 sequence (Q9JHG7 whole entry): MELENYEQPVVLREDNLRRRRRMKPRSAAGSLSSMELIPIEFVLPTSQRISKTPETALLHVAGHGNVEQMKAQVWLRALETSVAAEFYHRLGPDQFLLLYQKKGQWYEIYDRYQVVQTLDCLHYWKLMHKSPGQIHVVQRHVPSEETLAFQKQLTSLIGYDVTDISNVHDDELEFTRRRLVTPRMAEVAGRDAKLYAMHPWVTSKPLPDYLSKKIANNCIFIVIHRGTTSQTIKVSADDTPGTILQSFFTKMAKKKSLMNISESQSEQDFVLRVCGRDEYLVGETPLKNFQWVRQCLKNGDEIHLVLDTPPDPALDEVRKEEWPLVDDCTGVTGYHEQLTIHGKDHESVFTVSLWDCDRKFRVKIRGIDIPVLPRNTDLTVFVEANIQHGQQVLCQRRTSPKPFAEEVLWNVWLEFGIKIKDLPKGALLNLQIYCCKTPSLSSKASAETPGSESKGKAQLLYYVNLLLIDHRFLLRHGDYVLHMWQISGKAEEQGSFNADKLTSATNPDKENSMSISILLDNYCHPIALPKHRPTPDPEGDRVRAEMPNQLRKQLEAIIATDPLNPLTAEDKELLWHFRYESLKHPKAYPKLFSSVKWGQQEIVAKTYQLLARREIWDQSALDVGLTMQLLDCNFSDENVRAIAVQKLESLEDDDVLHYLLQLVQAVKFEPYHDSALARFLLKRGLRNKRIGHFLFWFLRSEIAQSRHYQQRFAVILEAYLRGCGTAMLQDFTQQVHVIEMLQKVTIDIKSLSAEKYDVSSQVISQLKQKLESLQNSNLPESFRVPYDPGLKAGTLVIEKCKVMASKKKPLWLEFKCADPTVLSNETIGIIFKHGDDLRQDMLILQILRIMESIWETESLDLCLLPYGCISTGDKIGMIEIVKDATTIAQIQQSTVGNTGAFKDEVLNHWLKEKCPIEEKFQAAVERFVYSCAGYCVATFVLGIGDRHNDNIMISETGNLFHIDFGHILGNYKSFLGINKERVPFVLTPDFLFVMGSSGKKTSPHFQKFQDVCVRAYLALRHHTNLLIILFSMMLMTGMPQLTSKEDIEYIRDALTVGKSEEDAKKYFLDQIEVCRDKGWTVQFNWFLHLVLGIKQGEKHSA
T1 sequence (Q5SW28 whole entry partner): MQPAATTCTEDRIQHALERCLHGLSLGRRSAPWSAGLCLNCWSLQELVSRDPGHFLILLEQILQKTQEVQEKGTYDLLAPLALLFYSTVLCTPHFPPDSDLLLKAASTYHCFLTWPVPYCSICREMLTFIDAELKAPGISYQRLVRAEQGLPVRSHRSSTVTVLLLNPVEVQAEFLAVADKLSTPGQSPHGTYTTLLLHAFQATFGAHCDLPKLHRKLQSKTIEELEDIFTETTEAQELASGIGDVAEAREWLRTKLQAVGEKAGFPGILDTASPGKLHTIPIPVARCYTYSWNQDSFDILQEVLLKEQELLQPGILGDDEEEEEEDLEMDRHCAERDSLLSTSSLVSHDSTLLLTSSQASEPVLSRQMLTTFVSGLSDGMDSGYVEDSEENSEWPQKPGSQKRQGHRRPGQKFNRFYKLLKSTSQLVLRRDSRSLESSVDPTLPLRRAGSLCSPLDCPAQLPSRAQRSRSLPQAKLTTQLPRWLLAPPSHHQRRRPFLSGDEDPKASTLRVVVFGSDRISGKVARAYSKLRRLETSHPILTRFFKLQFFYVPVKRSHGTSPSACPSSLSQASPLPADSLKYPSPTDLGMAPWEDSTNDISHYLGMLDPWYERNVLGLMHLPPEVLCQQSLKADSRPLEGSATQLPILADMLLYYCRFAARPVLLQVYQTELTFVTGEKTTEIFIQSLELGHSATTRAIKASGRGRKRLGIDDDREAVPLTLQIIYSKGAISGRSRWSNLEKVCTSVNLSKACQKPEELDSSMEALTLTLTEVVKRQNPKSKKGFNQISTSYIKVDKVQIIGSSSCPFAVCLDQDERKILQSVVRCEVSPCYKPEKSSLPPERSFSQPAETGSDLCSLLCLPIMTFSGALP

In data set [1], `CC(=O)Nc1nc(C)c(-c2cc3c(c(NS(C)(=O)=O)n2)C(=O)N([C@@H](C)C2CC2)C3)s1` [Compound 20, (S)-N-(5-(2-(1-cyclopropylethyl)-4-(methylsulfonamido)-3-oxo-2,3-dihydro-1H-pyrrolo[3,4-c]pyridin-6-yl)-4-methylthiazol-2-yl)acetamide] returned a solubility at 2 h of 240 µM (≈ 108 µg/mL). Moreover, in data set [1] (physiologic pH), the “fold improvement over AZ-17 in kinetic solubility test” value was greater than 200 fold. Moreover, the IC50 on PI3K gamma is 4.3 nM. Moreover, the IC50 on PI3K delta is 2160 nM. Further, in the data set “Pharmacokinetics in dogs” (beagle dogs), the “F (%) oral bioavailability” value is 108%, the “Vssobs” value came to 2.1 L/kg, the clearance was 6.1 mL/min/kg and the half-life is 7.2 h. In the data set “Pharmacokinetics in dogs”, the bioavailability was 107%.
Compound `CC(=O)Nc1nc(C)c(-c2cc3c(c(N4CCOCC4)n2)C(=O)N([C@@H](C)C2CC2)C3)s1` [Compound 34, (S)-N-(5-(2-(1-cyclopropylethyl)-4-morpholino-3-oxo-2,3-dihydro-M-pyrrolo[3,4-c]pyridin-6-yl)-4-methylthiazol-2-yl)acetamide] gave a solubility at 2 h in data set [1] of 9.6 µM (≈ 4.24 µg/mL). At PI3K gamma, the IC50 stood at 1.6 nM. For the same compound, at PI3K delta, the IC50 turned out to be 1960 nM. Moreover, in the data set “Pharmacokinetics in dogs” (beagle dogs), the “Vssobs” value was determined as 2.7 L/kg, the clearance was 4.5 mL/min/kg and the half-life is 9.1 h. The bioavailability in the data set “Pharmacokinetics in dogs” is greater than 68%.
